{"source": "patent US11154519B2", "about": "“Inhibitors and their uses” (MEDICAL RESEARCH COUNCIL, priority 2015, dated 2021)", "key": {"mice": {"tested_on": "mice", "test": "Side effects of Guanabenz: activity of mice after dosing", "type": "in vivo", "details": "10 mg/kg oral gavage", "experimental": "To assess whether of a compound of Example 1 had the side effects of Guanabenz, mice (n>3) were gavaged orally with 10 mg/kg of compound or Guanabenz. Their activity was monitored 30 minutes following dosing.\nIn humans, the adrenergic agonist activity of Guanabenz has side effects including drowsiness and coma at high doses (A. H. Hall, Ann Intern Med 102; 787-788; 1985). Due to of these side effects, Guanabenz is no longer used in human. It is anticipated that Guanabenz derivatives have the side effects of Guanabenz, associated with alpha-2 adrenergic activity."}, "Db/db animals": {"tested_on": "Db/db animals", "test": "Blood glucose in obese db/db mice", "type": "in vivo", "details": "1 mg/kg once a day, three weeks", "experimental": "For treatment of a metabolic disorder, Db/db animals (n=5 per condition) were treated once a day with 1 mg/kg of compound of Example 1 for three weeks. Blood glucose levels were measured with a blood glucose meter (DSI) between 9 and 10 am. Data are mean+/−S.e.m.\nIt is known that metabolic diseases such as diabetes, obesity, fatty liver disease, and atherosclerosis are associated with pathological ER stress and it is believed that pharmacological modulators of the UPR may have therapeutic benefit. As there were no PPP1R15B inhibitors available prior to this study it was unclear whether PPP1R15B could be a therapeutic target in metabolic diseases. […] Having shown in one disease model that treatment with a compound of Example 1 is beneficial, it is evident that the compounds of the invention will be beneficial to other mammalian metabolic disorders such as diabetes, obesity, fatty liver disease, and atherosclerosis."}, "PPP1R15A": {"tested_on": "PPP1R15A", "test": "Assay 6: PPP1R15A induction in mouse brain (qPCR)", "type": "in vivo", "details": "mice, dose-dependent", "experimental": "RNA from brain was extracted in trizol (Life Technologies). RNA concentration was measured using a NANODROP1000 spectrophotometer (Thermo Fisher Scientific), and 1 μg was reverse transcribed to cDNA using a SuperScript reverse transcriptase (Life Technologies). Quantitative PCR with primers GAPDH (f): […], GAPDH (r): […], PPP1R15A (f): […]; and PPP1R15A (r): […] was performed using SYBR® Select Master Mix (Ref 4472908, applied biosystems) on a Corbett Rotor-Gene version 6000. Expression of each gene was normalized to the housekeeping gene GAPDH and expressed as fold change calculated using Paffl equation.\nPPP1R15A induction was assessed by qPCR on total mRNA extracted from brains of mice treated with the indicated doses of compound of Example 1.\nThis explains why a selective PPP1R15B inhibitor is tolerated in mice: PPP1R15A induction dephosphorylates eIF2α, ensuring that the eIF2α phosphorylation which results from PPP1R15B inhibition by a compound of Example 1 is only transient. This is important because a persistent phosphorylation of eIF2α is detrimental. The induction of PPP1R15A in vivo by a PPP1R15B inhibitor is a pharmacodynamic parameter that can be used to evaluate the efficacy and potency of PPP1R15B inhibitors in mammals in pre-clinical or clinical studies."}, "HeLa cells": {"tested_on": "HeLa cells", "test": "Assay 4: protection of cells from tunicamycin stress (WST-8)", "type": "cell-based, human", "details": "Tunicamycin 2.5 μg/ml, 0.2-5 μM compound, 3 days", "experimental": "Cells were plated in 24-well plates at a density of 15,000 (HeLa) or 12,000 cells/ml (MEFs) 24 hours prior to treatment. ER stress was elicited by addition of fresh media containing 2.5 μg/ml tunicamycin (Sigma-Aldrich). Compounds of Example 1 were dissolved in DMSO and added as indicated. DMSO was used as a mock treatment. Cell viability was assessed by measuring the reduction of WST-8 [2-(2-methoxy-4-nitrophenyl)-3-(4-nitrophenyl)-5-(2,4-disulfophenyl)-2H-tetrazolium] into formazan using Cell viability Counting Kit-8 (Dojindo) according to the supplier's recommendation, […] after tunicamycin treatment.\nCells where stressed with Tunicamycin (2.5 μg/ml) in the presence of 0.2-5 μM of a compound of Example 1. Cell viability was measured 3 days after treatment.\nCytoprotection against ER stress can be measured by a suitable assay. In this instance, cytoprotection was measured in HeLa cells in which ER stress was elicited by the addition of media containing tunicamycin, a drug that blocks N-glycosylation, thereby preventing protein folding and inducing the unfolded protein response. Cell viability was then detected in the presence and absence of a compound of Example 1 after a set period of time, by measuring the reduction of WST-8 into formazan using the standard cell viability kit Cell Viability Counting Kit-8 from Dojindo. […]"}, "[1]": {"tested_on": "dorsal root ganglia culture (DRG) from PMP22 mutant mice", "test": "Myelination in DRG explants from neuropathic mice", "type": "cell-based", "details": "5 nM, 14 days", "experimental": "Dorsal root ganglia (DRG) dissected from wild-type or Pmp22Tr-J (PMP22mutant) (Henry et al., Neuropathol. Exp. Neurol., 42, 688-706, 1983) embryo at 13.5 or […] (E13.5) were cultured on collagen coated coverslips in neurobasal media supplemented with 4 g/l glucose, 2 mM L-glutamine, 2% B27 supplement and 50 ng/ml neuronal growth factor (NGF) for 7 days. To differentiate Schwann cells and induce myelination, the cultured DRGs were then maintained in C-media (MEM media supplemented with 4 g/I glucose, 2 mM L-glutamine, 10% FCS, 50 ng/ml NGF). The C-media was replaced every other day with freshly added 50 μg/ml ascorbic acid ±5 nM of compound of Example I and cultured for 14 days for myelination by the Schwann cells. The cultured DRGs were then fixed in 4% paraformaldehyde and immunostained with MBP (Rat Myelin basic protein, 1/250 dilution, ab73498).\nCMT is a group of myelin neuropathies caused by mutations in a number of genes. Mutations in the peripheral myelin protein PMP22 are the most common causes of CMT. A mutation in PMP22 (Trembler-J) causes the misfolding of PMP22 and a disease in mice that resembles CMT in human due to defects in myelin in the peripheral nervous system. Explants from PM P22 mutant mice recapitulates the severe hypomyelination observed in the human diseases. […] The compound of Example 1 will also be useful in the treatment of other myelin disorders."}, "[2]": {"test": "Toxicity in mice (clinical signs, weight)", "type": "in vivo", "design": "clinical signs: dose or concentration left out as unconfirmed", "details": "2 weeks, oral", "experimental": "For studying the effect of a compound of Example 1 on weight, C3H/B6 mice were gavaged orally once a day with compounds of Example 1 and mice weight was recorded daily for 2 weeks.\nMice were treated with Example 1 and monitored closely to detect any clinical signs. […] This establishes that PPP1R15B inhibition is not toxic. This was surprising and unanticipated as prior to this study one would have speculated that PPP1R15B inhibitors would be so deleterious that they would have no therapeutic potential."}}, "data": [{"smiles": "[H]/N=C(\\N)NN=Cc1cccc(Cl)c1Cl", "note": "[Compound 16, (E)-2-(2,3-dichlorobenzylidene)hydrazine-1-carboximidamide]", "values": [{"measurement": "activity of mice 30 minutes following dosing", "setting": "mice", "result": "as active as untreated mice"}, {"measurement": "blood glucose", "setting": "Db/db animals", "result": "reduced the pathological high blood glucose"}, {"measurement": "PPP1R15A induction (mRNA, brain)", "setting": "PPP1R15A", "result": "induced PPP1R15A"}, {"measurement": "protection of cells from stress (cell viability)", "setting": "HeLa cells", "result": "protects cells from cytotoxic stress caused by tunicamycin"}, {"measurement": "length of myelin internodes", "setting": "[1]", "result": "increased the length of myelin internodes in mutant DRG"}, {"measurement": "clinical signs", "setting": "[2]", "result": "undistinguishable from mice treated with placebo"}, {"measurement": "weight gain", "setting": "[2]; up to 10 mg/mg once a day", "result": "gained weight normally"}]}]}
